Test system: MV-4-11 cells
Test: Gene expression microarray analysis (Affymetrix PrimeView) and GSEA
Type: cell-based, human
Parameters: RFU PODN (11730768_x_at) / Fold change /veh PODN (11730768_x_at) / RFU LINC00158 (11744669_a_at) / Fold change /veh LINC00158 (11744669_a_at) / RFU DUSP10 (11751237_a_at) / Fold change /veh DUSP10 (11751237_a_at) / RFU ID3 (11757404_x_at) / Fold change /veh ID3 (11757404_x_at) / RFU PLEKHG5 (11737974_s_at) / Fold change /veh PLEKHG5 (11737974_s_at) / RFU LRRC4B (11730491_at) / Fold change /veh LRRC4B (11730491_at) / RFU GIMAP4 (11747438_a_at) / Fold change /veh GIMAP4 (11747438_a_at) / RFU KRT8 (11758183_x_at) / Fold change /veh KRT8 (11758183_x_at) / RFU CNN1 (11734310_a_at) / Fold change /veh CNN1 (11734310_a_at) / RFU VPS37D (11726825_at) / Fold change /veh VPS37D (11726825_at) / RFU C10orf10 (11716522_x_at) / Fold change /veh C10orf10 (11716522_x_at) / RFU KIR2DL2 /// KIR2DL4 /// KIR2DL5A /// KIR2DL5B /// KIR2DS1 /// KIR2DS2 /// KIR2DS3 /// KIR2DS4 /// KIR3DL3 /// KIR3DL3 /// KIR3DS1 (11738374_at) / Fold change /veh KIR2DL2 /// KIR2DL4 /// KIR2DL5A /// KIR2DL5B /// KIR2DS1 /// KIR2DS2 /// KIR2DS3 /// KIR2DS4 /// KIR3DL3 /// KIR3DL3 /// KIR3DS1 (11738374_at) / RFU C1QL1 (11718748_at) / Fold change /veh C1QL1 (11718748_at) / RFU TMPRSS4 (11747572_a_at) / Fold change /veh TMPRSS4 (11747572_a_at) / RFU HAMP (11756126_x_at) / Fold change /veh HAMP (11756126_x_at) / RFU RNFT2 (11725882_a_at) / Fold change /veh RNFT2 (11725882_a_at) / RFU NR4A2 (11747474_a_at) / Fold change /veh NR4A2 (11747474_a_at) / RFU ABCC12 (11746883_a_at) / Fold change /veh ABCC12 (11746883_a_at) / RFU TMEM136 (11760407_x_at) / Fold change /veh TMEM136 (11760407_x_at) / RFU CLDN22 /// WWC2 (11732394_at) / Fold change /veh CLDN22 /// WWC2 (11732394_at) / RFU HLA-DPB1 (11760878_x_at) / Fold change /veh HLA-DPB1 (11760878_x_at) / RFU SPINT1 (11716480_a_at) / Fold change /veh SPINT1 (11716480_a_at) / RFU GAP43 (11754022_s_at) / Fold change /veh GAP43 (11754022_s_at) / RFU A4GNT (11735810_at) / Fold change /veh A4GNT (11735810_at) / RFU PRB3 (11715151_x_at) / Fold change /veh PRB3 (11715151_x_at) / RFU TUBB4B (11761932_at) / Fold change /veh TUBB4B (11761932_at) / RFU CAPN14 (11732068_a_at) / Fold change /veh CAPN14 (11732068_a_at) / RFU TMCC2 (11721928_a_at) / Fold change /veh TMCC2 (11721928_a_at) / RFU IRGQ (11745062_a_at) / Fold change /veh IRGQ (11745062_a_at) / RFU FAM174B (11720279_a_at) / Fold change /veh FAM174B (11720279_a_at) / RFU TMPRSS4 (11748680_a_at) / Fold change /veh TMPRSS4 (11748680_a_at) / RFU FAM212B (11763350_a_at) / Fold change /veh FAM212B (11763350_a_at) / RFU PLEKHG5 (11743358_a_at) / Fold change /veh PLEKHG5 (11743358_a_at) / RFU ZSCAN30 (11745921_a_at) / Fold change /veh ZSCAN30 (11745921_a_at) / RFU CMKLR1 (11741424_a_at) / Fold change /veh CMKLR1 (11741424_a_at) / RFU LOC101060620 /// MAPK8IP1 (11723275_at) / Fold change /veh LOC101060620 /// MAPK8IP1 (11723275_at) / RFU SPTSSB (11747773_x_at) / Fold change /veh SPTSSB (11747773_x_at) / RFU PRSS12 (11739890_at) / Fold change /veh PRSS12 (11739890_at) / RFU BIN1 (11741810_x_at) / Fold change /veh BIN1 (11741810_x_at) / RFU WNT11 (11732464_a_at) / Fold change /veh WNT11 (11732464_a_at) / RFU C10orf10 (11716521_a_at) / Fold change /veh C10orf10 (11716521_a_at) / RFU C5orf56 (11738089_at) / Fold change /veh C5orf56 (11738089_at) / RFU CYB561 (11721691_x_at) / Fold change /veh CYB561 (11721691_x_at) / RFU ANKRD19P (11752326_a_at) / Fold change /veh ANKRD19P (11752326_a_at) / RFU OR2T12 /// OR2T33 /// OR2T8 (11738714_s_at) / Fold change /veh OR2T12 /// OR2T33 /// OR2T8 (11738714_s_at) / RFU VCAN (11748164_a_at) / Fold change /veh VCAN (11748164_a_at) / RFU JSRP1 (11732532_at) / Fold change /veh JSRP1 (11732532_at) / RFU KRTAP10-11 (11738290_x_at) / Fold change /veh KRTAP10-11 (11738290_x_at) / RFU MYO3A (11730013_a_at) / Fold change /veh MYO3A (11730013_a_at) / RFU EBF3 (11725865_a_at) / Fold change /veh EBF3 (11725865_a_at) / RFU CAMK2N1 (11719241_x_at) / Fold change /veh CAMK2N1 (11719241_x_at) / RFU C5orf56 (11738088_a_at) / Fold change /veh C5orf56 (11738088_a_at) / RFU OLFML3 (11715873_a_at) / Fold change /veh OLFML3 (11715873_a_at) / RFU LOC100653217 /// NTM (11731650_a_at) / Fold change /veh LOC100653217 /// NTM (11731650_a_at) / RFU MAPK11 (11762145_a_at) / Fold change /veh MAPK11 (11762145_a_at) / RFU FIZ1 (11724087_x_at) / Fold change /veh FIZ1 (11724087_x_at) / RFU OASL (11726364_x_at) / Fold change /veh OASL (11726364_x_at) / RFU SOX15 (11748057_x_at) / Fold change /veh SOX15 (11748057_x_at) / RFU CD79A (11719716_a_at) / Fold change /veh CD79A (11719716_a_at) / RFU HIST1H1D (11736915_at) / Fold change /veh HIST1H1D (11736915_at) / RFU CASKIN2 (11723855_a_at) / Fold change /veh CASKIN2 (11723855_a_at) / RFU LOC730098 (11760151_x_at) / Fold change /veh LOC730098 (11760151_x_at) / RFU OR4N2 (11742367_at) / Fold change /veh OR4N2 (11742367_at) / RFU PRRT2 (11749266_a_at) / Fold change /veh PRRT2 (11749266_a_at) / RFU SNX32 (11753110_a_at) / Fold change /veh SNX32 (11753110_a_at) / RFU CDHR5 (11726645_a_at) / Fold change /veh CDHR5 (11726645_a_at) / RFU RCAN1 (11760418_a_at) / Fold change /veh RCAN1 (11760418_a_at) / RFU FAM167A (11723789_a_at) / Fold change /veh FAM167A (11723789_a_at) / RFU FAM26E (11764081_at) / Fold change /veh FAM26E (11764081_at) / RFU ISYNA1 (11749810_s_at) / Fold change /veh ISYNA1 (11749810_s_at) / RFU ACY1 (11761880_at) / Fold change /veh ACY1 (11761880_at) / RFU 11764098_at / Fold change /veh 11764098_at / RFU SAMD14 (11745864_x_at) / Fold change /veh SAMD14 (11745864_x_at) / RFU NPB (11741838_a_at) / Fold change /veh NPB (11741838_a_at) / RFU TMPRSS6 (11731388_a_at) / Fold change /veh TMPRSS6 (11731388_a_at) / RFU KRTAP10-2 (11738614_at) / Fold change /veh KRTAP10-2 (11738614_at) / RFU ARHGAP8 /// PRR5-ARHGAP8 (11727945_x_at) / Fold change /veh ARHGAP8 /// PRR5-ARHGAP8 (11727945_x_at) / RFU KRTAP5-7 /// NADSYN1 (11734609_at) / Fold change /veh KRTAP5-7 /// NADSYN1 (11734609_at) / RFU RASL12 (11751679_a_at) / Fold change /veh RASL12 (11751679_a_at) / RFU CDKN2B (11736163_a_at) / Fold change /veh CDKN2B (11736163_a_at) / RFU PRF1 (11729649_at) / Fold change /veh PRF1 (11729649_at) / RFU, ZNF638 /// ZNF638-IT1 / Fold change vs veh, ZNF638 /// ZNF638-IT1 / RFU, PANK3 / Fold change vs veh, PANK3 / RFU, SH3YL1 / Fold change vs veh, SH3YL1 / RFU, ZEB2 / Fold change vs veh, ZEB2 / RFU, NRIP1 / Fold change vs veh, NRIP1 / RFU, PTTG1IP / Fold change vs veh, PTTG1IP / RFU, CAPN2 / Fold change vs veh, CAPN2 / RFU, MED14 / Fold change vs veh, MED14 / RFU, SNORA58 / Fold change vs veh, SNORA58 / RFU, C1orf63 / Fold change vs veh, C1orf63 / RFU, LRRFIP1 / Fold change vs veh, LRRFIP1 / RFU, NDUFAF7 / Fold change vs veh, NDUFAF7 / RFU, SLC12A2 / Fold change vs veh, SLC12A2 / RFU, IBTK / Fold change vs veh, IBTK / RFU, ESF1 / Fold change vs veh, ESF1 / Fold change vs veh, TMEM50B / RFU, TAOK1 / Fold change vs veh, TAOK1 / RFU, ACBD3 / Fold change vs veh, ACBD3 / RFU, TMA16 / Fold change vs veh, TMA16 / RFU, RWDD3 / Fold change vs veh, RWDD3 / RFU, BCAT1 / Fold change vs veh, BCAT1 / RFU, EDEM3 / Fold change vs veh, EDEM3 / RFU, TMEM33 / Fold change vs veh, TMEM33 / RFU, WDR75 / Fold change vs veh, WDR75 / RFU, AHCTF1 / Fold change vs veh, AHCTF1 / RFU, TFRC / Fold change vs veh, TFRC / RFU, ZDHHC17 / Fold change vs veh, ZDHHC17 / RFU, NOM1 / Fold change vs veh, NOM1 / RFU, ARL8B / Fold change vs veh, ARL8B / RFU, ZBTB11 / Fold change vs veh, ZBTB11 / RFU, TAMM41 / Fold change vs veh, TAMM41 / RFU, KIAA1704 /// LOC100996395 / Fold change vs veh, KIAA1704 /// LOC100996395 / RFU, ING1 / Fold change vs veh, ING1 / RFU, TRMT61B / Fold change vs veh, TRMT61B / RFU, FUBP3 / Fold change vs veh, FUBP3 / RFU, TP53 / Fold change vs veh, TP53 / RFU, TNKS2 / Fold change vs veh, TNKS2 / RFU, ZFP14 / Fold change vs veh, ZFP14 / RFU, ACTR2 / Fold change vs veh, ACTR2 / RFU, PPP3R1 / Fold change vs veh, PPP3R1 / RFU, PIK3R1 / Fold change vs veh, PIK3R1 / RFU, HNRNPA1 / Fold change vs veh, HNRNPA1 / RFU, RNF170 / Fold change vs veh, RNF170 / RFU, ZNF28 / Fold change vs veh, ZNF28 / RFU, RNGTT / Fold change vs veh, RNGTT / RFU, OGT / Fold change vs veh, OGT / RFU, BRD1 / Fold change vs veh, BRD1 / RFU, MARS / Fold change vs veh, MARS / RFU, ZNF655 / Fold change vs veh, ZNF655 / RFU, FAHD1 / Fold change vs veh, FAHD1 / RFU, BDP1 / Fold change vs veh, BDP1 / RFU, LRRCC1 / Fold change vs veh, LRRCC1 / RFU, ARID1A / Fold change vs veh, ARID1A / RFU, ZNF146 / Fold change vs veh, ZNF146 / RFU, ZNF330 / Fold change vs veh, ZNF330 / RFU, GPN3 / Fold change vs veh, GPN3 / RFU, C9orf123 / Fold change vs veh, C9orf123 / RFU, N4BP2L2 / Fold change vs veh, N4BP2L2 / RFU, ARFIP1 / Fold change vs veh, ARFIP1 / RFU, FAM179B / Fold change vs veh, FAM179B / RFU, BCL10 / Fold change vs veh, BCL10 / RFU, UHRF1BP1L / Fold change vs veh, UHRF1BP1L / RFU, BET1 / Fold change vs veh, BET1 / RFU, CNOT2 / Fold change vs veh, CNOT2 / RFU, ZNF268 / Fold change vs veh, ZNF268 / Fold change vs veh, ZNF507 / RFU, DGCR2 / Fold change vs veh, DGCR2 / RFU, WDSUB1 / Fold change vs veh, WDSUB1 / Fold change vs veh, HSP90B1 /// MIR3652 / RFU, ADSS / Fold change vs veh, ADSS / RFU, GK / Fold change vs veh, GK / RFU, ZNF148 / Fold change vs veh, ZNF148 / RFU, TAF9 / Fold change vs veh, TAF9 / RFU, SLC1A5 / Fold change vs veh, SLC1A5 / RFU, SLMO2 / Fold change vs veh, SLMO2 / RFU, ABCC4 / Fold change vs veh, ABCC4 / RFU, LOC101060439 /// RAP1B / Fold change vs veh, LOC101060439 /// RAP1B / RFU, RFX7 / Fold change vs veh, RFX7 / RFU, GTPBP10 / Fold change vs veh, GTPBP10 / RFU, CNEP1R1 / Fold change vs veh, CNEP1R1 / RFU, BIVM-ERCC5 /// ERCC5 / Fold change vs veh, BIVM-ERCC5 /// ERCC5 / RFU, ILF3 / Fold change vs veh, ILF3 / RFU 11762660_at / Fold change /veh 11762660_at / RFU VCAN (11757783_s_at) / Fold change /veh VCAN (11757783_s_at) / RFU DDX43 (11728927_at) / Fold change /veh DDX43 (11728927_at) / RFU KRT8 (11758188_x_at) / Fold change /veh KRT8 (11758188_x_at) / RFU NKD1 (11759106_at) / Fold change /veh NKD1 (11759106_at) / RFU SRD5A1 (11742802_a_at) / Fold change /veh SRD5A1 (11742802_a_at) / RFU TPSAB1 /// TPSB2 (11721975_s_at) / Fold change /veh TPSAB1 /// TPSB2 (11721975_s_at) / RFU GSTM3 (11746129_a_at) / Fold change /veh GSTM3 (11746129_a_at) / RFU IL23R (11737362_x_at) / Fold change /veh IL23R (11737362_x_at) / RFU TMEM51 (11727254_a_at) / Fold change /veh TMEM51 (11727254_a_at) / RFU PIWIL2 (11732686_x_at) / Fold change /veh PIWIL2 (11732686_x_at) / RFU ORM1 (11744905_x_at) / Fold change /veh ORM1 (11744905_x_at) / RFU CCDC152 (11743942_at) / Fold change /veh CCDC152 (11743942_at) / RFU ECM1 (11717891_a_at) / Fold change /veh ECM1 (11717891_a_at) / RFU IL23R (11748794_a_at) / Fold change /veh IL23R (11748794_a_at) / RFU TNFAIP8L3 (11732012_x_at) / Fold change /veh TNFAIP8L3 (11732012_x_at) / RFU MBOAT4 (11741988_at) / Fold change /veh MBOAT4 (11741988_at) / RFU 11764193_at / Fold change /veh 11764193_at / RFU TMEM53 (11763286_at) / Fold change /veh TMEM53 (11763286_at) / RFU MAGEB2 (11727129_at) / Fold change /veh MAGEB2 (11727129_at) / RFU TMEM200A (11744735_a_at) / Fold change /veh TMEM200A (11744735_a_at) / RFU CCDC152 (11751479_a_at) / Fold change /veh CCDC152 (11751479_a_at) / RFU FAM211A (11726209_a_at) / Fold change /veh FAM211A (11726209_a_at) / RFU RGS16 (11746705_a_at) / Fold change /veh RGS16 (11746705_a_at) / RFU VCAN (11755009_s_at) / Fold change /veh VCAN (11755009_s_at) / RFU RHOB (11743442_s_at) / Fold change /veh RHOB (11743442_s_at) / RFU RGS16 (11720943_a_at) / Fold change /veh RGS16 (11720943_a_at) / RFU RGS16 (11720944_at) / Fold change /veh RGS16 (11720944_at) / RFU, VPS4B / Fold change vs veh, VPS4B / RFU, CREB1 / Fold change vs veh, CREB1 / RFU, DNAJC13 / Fold change vs veh, DNAJC13 / RFU, GNAQ / Fold change vs veh, GNAQ / RFU, CDK5R1 / Fold change vs veh, CDK5R1 / RFU, ZRANB3 / Fold change vs veh, ZRANB3 / RFU, CUL4A / Fold change vs veh, CUL4A / RFU, CCNY / Fold change vs veh, CCNY / RFU, UFL1 / Fold change vs veh, UFL1 / RFU, COG3 / Fold change vs veh, COG3 / RFU, DIAPH2 / Fold change vs veh, DIAPH2 / RFU, SKA2 / Fold change vs veh, SKA2 / RFU, AFF3 / Fold change vs veh, AFF3 / RFU, LMF1 / Fold change vs veh, LMF1 / RFU, IPO11 / Fold change vs veh, IPO11 / RFU, DFFB / Fold change vs veh, DFFB / RFU, FOXP1 / Fold change vs veh, FOXP1 / RFU, CARD8 / Fold change vs veh, CARD8 / RFU, STRN3 / Fold change vs veh, STRN3 / RFU, ADK / Fold change vs veh, ADK / RFU, RASSF2 / Fold change vs veh, RASSF2 / RFU, WIPF1 / Fold change vs veh, WIPF1 / RFU, LARP1B / Fold change vs veh, LARP1B / RFU, RASA1 / Fold change vs veh, RASA1 / RFU, RB1 / Fold change vs veh, RB1 / RFU, PPFIA1 / Fold change vs veh, PPFIA1 / RFU, MAT2A / Fold change vs veh, MAT2A / RFU, CCT5 / Fold change vs veh, CCT5 / RFU, WDR92 / Fold change vs veh, WDR92 / RFU, CUX1 / Fold change vs veh, CUX1 / RFU, TTC7A / Fold change vs veh, TTC7A / RFU, TMEM135 / Fold change vs veh, TMEM135 / RFU, DEPTOR / Fold change vs veh, DEPTOR / RFU, CPM / Fold change vs veh, CPM / RFU, DNAJB6 / Fold change vs veh, DNAJB6 / RFU, CACNA2D3 / Fold change vs veh, CACNA2D3 / RFU, DTX4 / Fold change vs veh, DTX4 / RFU, TFCP2 / Fold change vs veh, TFCP2 / RFU, GMCL1 /// GMCL1P1 / Fold change vs veh, GMCL1 /// GMCL1P1 / RFU, AEBP2 / Fold change vs veh, AEBP2 / RFU, SNHG1 /// SNORD22 /// SNORD25 /// SNORD26 /// SNORD27 /// SNORD28 /// SNORD29 /// SNORD31 / Fold change vs veh, SNHG1 /// SNORD22 /// SNORD25 /// SNORD26 /// SNORD27 /// SNORD28 /// SNORD29 /// SNORD31 / Fold change (Aza/veh), C12orf56 (ProbeSet 11735607_a_at) / Fold change (ACY-1035/veh), C12orf56 (ProbeSet 11735607_a_at) / Fold change (Aza/veh), FGFR1OP (ProbeSet 11751329_s_at) / Fold change (ACY-1035/veh), FGFR1OP (ProbeSet 11751329_s_at) / Fold change (Aza/veh), VPS36 (ProbeSet 11739960_a_at) / Fold change (ACY-1035/veh), VPS36 (ProbeSet 11739960_a_at) / RFU SYPL1 (11715823_x_at) / Fold change /veh SYPL1 (11715823_x_at) / RFU IGFBP7 (11715501_s_at) / Fold change /veh IGFBP7 (11715501_s_at) / RFU REEP3 (11722064_at) / Fold change /veh REEP3 (11722064_at) / RFU IGLL1 (11728026_x_at) / Fold change /veh IGLL1 (11728026_x_at): dose or concentration left out as unconfirmed
Conditions: MV-4-11 cells, 48 hours

Nc1ccc(-c2cccs2)cc1NC(=O)c1ccc2c(c1)cc(C1CC1)n2CCN1CCOCC1 [ACY-1035]
Fold change /veh REEP3 (11722064_at): 0.53

Reference: PMC5218480 (PLoS ONE, 2017)
